From US20060003924A1, “Sulfation-independent L-selectin or E-selectin ligand (HCELL) and therapeutics thereof” (priority 1994, published 2006)
Entries after “also recorded” stand apart in the source; their conditions may differ. Like-named read-outs stand apart in the source and are kept apart here.

How the values were obtained:
[1] = tested on: KG1a; test: Lymphocyte adherence assay on KG1a cytocentrifuge preparations (Examples 2-6); format: cell-based, human; settings: for return of binding activity following desialylation: KG1a after neuraminidase
[2] = tested on: KG1a cells; test: Stamper-Woodruff lymphocyte adherence assay on KG1a cytospins (Example 9); format: cell-based, human; settings: for L-selectin ligand Activity of KG1a Cells Following Protease or Phospholipase C Treatment, % Control Binding: enzymatic treatment of cells in suspension before cytocentrifugation
[3] = tested on: CD43; test: Flow cytometry of sialic acid-dependent L60 epitope of CD43 on KG1a after neuraminidase; format: cell-based, human; settings: KG1a cultured with the agent
[4] = tested on: E-selectin ligand activity on KG1a and HL-60 cells; test: Parallel-plate flow chamber: CHO-E cell rolling on fixed hematopoietic cell monolayers; format: cell-based, human; settings: 2.8 dynes/cm^2, 3.8 dynes/cm^2
[5] = tested on: LN HEV; test: Lymphocyte adherence to frozen rat lymph node sections (LN HEV, positive control); format: cell-based
Method: Lymphocyte Adherence Assay. […] Cytocentrifuge preparations of KG1a or other cell lines were made on a Cytospin 3 Cytocentrifuge (Shandon Lipshaw, Pittsburgh, Pa.). Frozen rat LN sections […] thick were mounted on slides, and lymphocyte binding to LN HEV served as a positive control in all experiments.
Lymphocyte suspensions ([…]) were overlaid onto cytocentrifuge or LN sections in duplicate and placed on a rotating platform (80 rpm) at 4° C. for 30 minutes. Slides were then rinsed in cold PBS to remove non-adherent lymphocytes, fixed in 3% glutaraldehyde, and stained with methyl green-thionin. Slides were examined under the light microscope for adherence of lymphocytes to KG1a or LN HEV.

[6] = target: T1, KG1a CD44 (Homo sapiens, UniProt P16070); test: CHO-E cell rolling over blotted or spotted KG1a membrane proteins / immunoprecipitated CD44; format: cell-based; settings: 3.8 dynes/cm^2
T1 construct: was immunoprecipitated from KG1a membrane protein (50 μg); endogenous in cells; host or cells: KG1a cells (membrane preparation, Hermes-1 immunoprecipitate)

[7] = target: T2, E-selectin (Homo sapiens, UniProt P16581); test: E-selectin ligand activity of immunoprecipitated proteins (CHO-E cell rolling); format: cell-based; settings: for E-selectin-mediated CHO-E cell rolling on immunoprecipitated protein spotted onto plastic dishes: 3.8 dynes/cm^2
T2 construct: expressed in transfected cells; host or cells: CHO cells (CHO-E)
T2 sequence (P16581 22-610): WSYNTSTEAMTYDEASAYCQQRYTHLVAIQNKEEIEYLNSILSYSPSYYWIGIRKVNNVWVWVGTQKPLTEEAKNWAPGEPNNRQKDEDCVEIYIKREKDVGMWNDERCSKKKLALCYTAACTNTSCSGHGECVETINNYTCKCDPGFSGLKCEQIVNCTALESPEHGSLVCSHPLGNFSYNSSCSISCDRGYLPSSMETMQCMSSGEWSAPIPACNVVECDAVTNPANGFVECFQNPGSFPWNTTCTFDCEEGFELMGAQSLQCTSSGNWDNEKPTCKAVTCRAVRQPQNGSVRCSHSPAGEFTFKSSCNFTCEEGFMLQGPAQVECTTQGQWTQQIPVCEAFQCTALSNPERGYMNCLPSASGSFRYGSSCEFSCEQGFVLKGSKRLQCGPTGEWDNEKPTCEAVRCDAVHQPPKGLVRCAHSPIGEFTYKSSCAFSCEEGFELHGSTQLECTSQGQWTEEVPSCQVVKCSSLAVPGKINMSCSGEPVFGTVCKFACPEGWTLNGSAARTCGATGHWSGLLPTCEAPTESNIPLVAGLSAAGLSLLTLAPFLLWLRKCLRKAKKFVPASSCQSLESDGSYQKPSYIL

[8] = tested on: KG1a; test: KG1a cell viability by trypan blue exclusion; format: cell-based, human; settings: KG1a after the treatment
[9] = 20 hr culture, no neuraminidase pretreatment, tunicamycin 15 ug/ml, cycloheximide 1.25 ug/ml
[10] = after neuraminidase, 24 hr culture with chlorate 10 mM, 20 hr culture with tunicamycin 15 ug/ml or cycloheximide 1.25 ug/ml
[11] = 24 h culture with inhibitor after 1 h neuraminidase (0.1 U/ml), tunicamycin 15 μg/ml, deoxymannojirimycin 0.4 mg/ml, swainsonine 40 μg/ml
[12] = inhibitor alone, 24 h, tunicamycin 15 μg/ml, deoxymannojirimycin 0.4 mg/ml, swainsonine 40 μg/ml
[13] = LYMPHOCYTE TREATMENT, 1 mM EDTA, 10 mM mannose-6-P, 10 mg/ml PPME, 5 mg/ml fucoidin, 10 ng/ml PMA
[14] = digestion then culture without inhibitor (neuraminidase 24 hour, bromelain 20 hour)

T1 sequence (P16070 21-361 isoform P16070-12 limits assumed): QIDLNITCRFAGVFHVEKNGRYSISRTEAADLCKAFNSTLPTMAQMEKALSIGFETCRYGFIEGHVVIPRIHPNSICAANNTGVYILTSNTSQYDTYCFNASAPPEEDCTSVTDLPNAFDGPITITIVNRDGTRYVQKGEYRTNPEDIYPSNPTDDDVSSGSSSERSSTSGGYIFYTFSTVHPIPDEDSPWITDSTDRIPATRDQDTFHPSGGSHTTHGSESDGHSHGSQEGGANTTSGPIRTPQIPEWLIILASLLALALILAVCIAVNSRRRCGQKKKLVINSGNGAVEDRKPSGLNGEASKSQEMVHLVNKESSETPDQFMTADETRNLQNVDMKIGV

For `C[C@@H]1C[C@@H]([C@H](O)CC2CC(=O)NC(=O)C2)C(=O)[C@@H](C)C1` [Cycloheximide], the “Lymphocyte Adherence to KG1a, Mean of Binding (% of untreated control)” value (“Lymphocyte Adherence … (% of untreated control)” below) [1, 9] was 91.8 % of untreated control, the “return of binding activity following desialylation” value [1] was “blocked” and the “Lymphocyte Adherence … (% of untreated control)” value [1, 10] was 0.5 % of untreated control. For the same molecule, the “Mean % Control Binding” value ([2]; 20 hour culture with cycloheximide 1.25 μg/ml, no neuraminidase or bromelain digestion) was 91.8 % Control Binding, the “Mean % Control Binding” value ([2]; after bromelain, 20 hour culture with cycloheximide 1.25 μg/ml) was 0.6 % Control Binding and the “Mean % Control Binding” value ([2]; after neuraminidase, 20 hour culture with cycloheximide 1.25 μg/ml) was 0.5 % Control Binding.

`OC[C@H]1NC[C@@H](O)[C@@H](O)[C@@H]1O` [Deoxymannojirimycin] was tested, and the “return of the L60 epitope of CD43 after neuraminidase” value (“return of the L60 epitope of CD43” for short) [3] was “not inhibited”, the “% Control Adhesion” value [2, 11] was 22.5 % Control Adhesion and the “L-selectin ligand (HCELL) activity of KG1a / lymphocyte adherence (result in words)” value ([2]; Stamper-Woodruff assay) was “markedly diminished”. The “% Control Adhesion” value [2, 12] was 107.5 % Control Adhesion.

`O=C(O)CN(CCN(CC(=O)O)CC(=O)O)CC(=O)O` [EDTA] was tested, and the “E-selectin ligand activity (CHO-E cell rolling) on KG1a and HL-60 cells” value [4] was “completely inhibited; also recorded: no activity”, the “lymphocyte binding to KG1a (result in words)” value (from here on “lymphocyte binding to KG1a”) [1] was “completely inhibited” and the “Lymphocyte Adherence … (% of untreated control)” value [1, 13] was 0.3 % of Untreated Control. The “lymphocyte binding to LN control sections / LN HEV (result in words)” value [5] was “completely inhibited”, the “E-selectin ligand activity (CHO-E cell rolling) of KG1a membrane proteins / CD44 after treatment” value [6] was “no evidence of E-selectin-mediated adhesive interactions; also recorded: prevented CHO-E rolling” and the “L-selectin ligand (HCELL) activity of KG1a / lymphocyte adherence (result in words)” value [2] was “complete elimination”.

`O=C[C@@H](O)[C@@H](O)[C@H](O)[C@H](O)COP(=O)(O)O` [Mannose-6-P, D-mannose-6-phosphate] was tested, and the “lymphocyte binding to KG1a” value [1] was “inhibited”, the “Lymphocyte Adherence … (% of untreated control)” value [1, 13] was 5.7 % of Untreated Control and the “lymphocyte binding to LN control sections / LN HEV (result in words)” value [5] was “inhibited”.

With `O=S(=O)(F)Cc1ccccc1` [PMSF] the “lymphocyte binding to KG1a” value [1] was “prevented chymotrypsin effects”.

In the case of `O[C@H]1[C@H]2[C@H](O)CCCN2C[C@H]1O` [Swainsonine], the “return of the L60 epitope of CD43” value [3] is reported as “not inhibited”, the “% Control Adhesion” value [2, 11] is reported as 26.6 % Control Adhesion and the “L-selectin ligand (HCELL) activity of KG1a / lymphocyte adherence (result in words)” value ([2]; Stamper-Woodruff assay) is reported as “markedly diminished”. For the same molecule, the “% Control Adhesion” value [2, 12] was 95.5 % Control Adhesion.

With `CC(C)C[C@H](NC(=O)[C@@H](NC(=O)N[C@@H](Cc1ccccc1)C(=O)O)[C@@H]1CCN=C(N)N1)C(=O)N[C@H](C=O)Cc1ccccc1` [chymostatin] the “lymphocyte binding to KG1a” value [1] was “prevented chymotrypsin effects”.

For “BMEC CD44: CD44 immunoprecipitated from human bone marrow endothelial cells”, the “E-selectin ligand activity of immunoprecipitated CD44” value ([7]; human bone marrow endothelial cells, Hermes-1 immunoprecipitate) was “did not possess any E-selectin ligand activity”.

For Bromelain, the “lymphocyte binding to KG1a” value [1] was “abrogated binding”, the “Lymphocyte Adherence … (% of untreated control)” value ([1]; KG1A TREATMENT) was 3.8 % of Untreated Control and the “lymphocyte binding to LN control sections / LN HEV (result in words)” value [5] was “abrogated binding”. For the same molecule, the “L-selectin ligand (HCELL) activity of KG1a / lymphocyte adherence (result in words)” value ([2]; Stamper-Woodruff assay) was “completely abrogates”, the “Mean % Control Binding” value [2, 14] was 95.2 % Control Binding and the “L-selectin ligand Activity of KG1a Cells Following Protease or Phospholipase C Treatment, % Control Binding” value (“L-selectin ligand Activity … % Control Binding” below) [2] was 3.8 % Control Binding. For the same molecule, the “Mean % Control Binding” value ([2]; t = 0, no culture) was 3.8 % Control Binding.

In the case of Chymotrypsin, the “lymphocyte binding to KG1a” value [1] is reported as “abrogated binding”, the “Lymphocyte Adherence … (% of untreated control)” value ([1]; KG1A TREATMENT) is reported as 6.7 % of Untreated Control and the “lymphocyte binding to LN control sections / LN HEV (result in words)” value [5] is reported as “abrogated binding”. The “L-selectin ligand (HCELL) activity of KG1a / lymphocyte adherence (result in words)” value ([2]; Stamper-Woodruff assay) was “completely abrogates” and the “L-selectin ligand Activity … % Control Binding” value [2] was 6.7 % Control Binding.

For Fucoidin, the “lymphocyte binding to KG1a” value [1] was “inhibited”, the “Lymphocyte Adherence … (% of untreated control)” value [1, 13] was 1.4 % of Untreated Control and the “lymphocyte binding to LN control sections / LN HEV (result in words)” value [5] was “inhibited”.

With Human Neutrophil Elastase: protease the “L-selectin ligand (HCELL) activity of KG1a / lymphocyte adherence (result in words)” value ([2]; Stamper-Woodruff assay) was “partially affects activity” and the “L-selectin ligand Activity … % Control Binding” value [2] was 25.4 % Control Binding.

“KG1a CD44: HECA-452-reactive CD44 glycoform of KG1a, hematopoietic cell E-selectin/L-selectin ligand” was tested, and the “E-selectin-mediated CHO-E cell rolling on immunoprecipitated protein spotted onto plastic dishes” value [7] was “rolling was observed”.

“Neuraminidase: neuraminidase (sialidase), V. cholerae, Boehringer Mannheim” was tested, and the “E-selectin ligand activity (CHO-E cell rolling) on KG1a and HL-60 cells” value [4] was “no activity”, the “lymphocyte binding to KG1a” value [1] was “abrogated binding” and the “Lymphocyte Adherence … (% of untreated control)” value ([1]; KG1A TREATMENT) was 3.1 % of Untreated Control. The “Lymphocyte Adherence … (% of untreated control)” value ([1]; KG1a treatment, t = 0, no culture) was 0.02 % of untreated control, the “Lymphocyte Adherence … (% of untreated control)” value ([1]; neuraminidase then 24 hr culture) was 101.3 % of untreated control and the “Cell viability (trypan blue exclusion)” value [8] was > 99%. For the same molecule, the “lymphocyte binding to LN control sections / LN HEV (result in words)” value [5] was “abrogated binding”, the “E-selectin ligand activity (CHO-E cell rolling) of KG1a membrane proteins / CD44 after treatment” value [6] was “markedly ablated CHO-E cell rolling” and the “% Control Adhesion” value ([2]; Neuraminidase 1 h then 24 h recovery) was 99.3 % Control Adhesion. The “% Control Adhesion” value ([2]; Neuraminidase (1 h), 0.1 U/ml) was 1.0 % Control Adhesion, the “Mean % Control Binding” value [2, 14] was 101.3 % Control Binding and the “Mean % Control Binding” value ([2]; t = 0, no culture) was 0.2 % Control Binding.

Tunicamycin was tested, and the “return of the L60 epitope of CD43” value [3] was “not inhibited”, the “Lymphocyte Adherence … (% of untreated control)” value [1, 9] was 106.2 % of untreated control and the “return of binding activity following desialylation” value [1] was “blocked”. For the same molecule, the “Lymphocyte Adherence … (% of untreated control)” value [1, 10] was 0.4 % of untreated control, the “% Control Adhesion” value [2, 11] was 1.0 % Control Adhesion and the “L-selectin ligand (HCELL) activity of KG1a / lymphocyte adherence (result in words)” value ([2]; Stamper-Woodruff assay) was “completely prevented ligand re-expression”. For the same molecule, the “% Control Adhesion” value [2, 12] was 96.5 % Control Adhesion.

B1: KG1a PSGL-1: P-selectin glycoprotein ligand-1 immunoprecipitated (4H10 moAb) from KG1a (protein, UniProt Q14242 42-412, looked up)
P-selectin glycoprotein …: QATEYEYLDYDFLPETEPPEMLRNSTDTTPLTGPGTPESTTVEPAARRSTGLDAGGAVTELTTELANMGNLSTDSAAMEIQTTQPAATEAQTTQPVPTEAQTTPLAATEAQTTRLTATEAQTTPLAATEAQTTPPAATEAQTTQPTGLEAQTTAPAAMEAQTTAPAAMEAQTTPPAAMEAQTTQTTAMEAQTTAPEATEAQTTQPTATEAQTTPLAAMEALSTEPSATEALSMEPTTKRGLFIPFSVSSVTHKGIPMAASNLSVNYPVGAPDHISVKQCLLAILILALVATIFFVCTVVLAVRLSRKGHMYPVRNYSPTEMVCISSLLPDGGEGPSATANGGLSKAKSPGLTPEPREDREGDDLTLHSFLP
modifications: KG1a cell glycoform
notes: P-selectin glycoprotein ligand-1 immunoprecipitated (4H10 moAb) from KG1a
In the case of B1, the “E-selectin-mediated CHO-E cell rolling on immunoprecipitated protein spotted onto plastic dishes” value [7] is reported as “no binding was observed” and the “CHO-E rolling on immunoprecipitated protein” value ([7]; lower shear force of 0.6 dynes/cm^2) is reported as “did occur”.
